In patent US11814392B2, “Chromenopyridine-based compounds and methods of making and use thereof” (Rosalind Franklin University of Medicine and Science, priority 2020, dated 2023):

How the values were obtained:
[1] = system: SF-539; assay: NCI 60 five-dose screening, SF-539
Description: (§1) The National Cancer Institute's Developmental Therapeutic preclinical 60 human cancer cell lines were used for an in vitro screen. […] The one-dose and five-dose experiments were conducted according to standard NCI protocols.
(§2) The human tumor cell lines of the cancer screening panel are grown in RPMI 1640 medium containing 5% fetal bovine serum and 2 mM L-glutamine. For a typical screening experiment, cells are inoculated into 96 well microtiter plates in 100 μL at plating densities ranging from 5,000 to 40,000 cells/well depending on the doubling time of individual cell lines. After cell inoculation, the microtiter plates are incubated at 37° C., 5% CO2, 95% air and 100% relative humidity for 24 h prior to addition of experimental drugs.
(§3) After 24 h, two plates of each cell line are fixed in situ with TCA, to represent a measurement of the cell population for each cell line at the time of drug addition (Tz). […]
(§4) Following drug addition, the plates are incubated for an additional 48 h at 37° C., 5% CO2, 95% air, and 100% relative humidity. […] Bound stain is subsequently solubilized with 10 mM trizma base, and the absorbance is read on an automated plate reader at a wavelength of 515 nm. […] Using the seven absorbance measurements [time zero, (Tz), control growth, (C), and test growth in the presence of drug at the five concentration levels (Ti)], the percentage growth is calculated at each of the drug concentrations levels. Percentage growth inhibition is calculated as: [(Ti−Tz)/(C−Tz)]×100 for concentrations for which Ti>/=Tz [(Ti−Tz)/Tz]×100 for concentrations for which Ti<Tz.
(§5) Three dose response parameters are calculated for each experimental agent. […] The drug concentration resulting in total growth inhibition (TGI) is calculated from Ti=Tz. […] Values are calculated for each of these three parameters if the level of activity is reached; however, if the effect is not reached or is exceeded, the value for that parameter is expressed as greater or less than the maximum or minimum concentration tested.

[2] = system: SK-MEL-28; assay: NCI 60 five-dose screening, SK-MEL-28
Description: as §1, §2, §3, §4, §5

[3] = system: TK-10; assay: NCI 60 five-dose screening, TK-10
Description: as §1, §2, §3, §4, §5

[4] = system: COLO 205; assay: NCI 60 five-dose screening, COLO 205
Description: as §1, §2, §3, §4, §5

[5] = system: DU-145; assay: NCI 60 five-dose screening, DU-145
Description: as §1, §2, §3, §4, §5

[6] = system: NCI-H460; assay: NCI 60 five-dose screening, NCI-H460
Description: as §1, §2, §3, §4, §5

[7] = system: UACC-257; assay: NCI 60 five-dose screening, UACC-257
Description: as §1, §2, §3, §4, §5

[8] = system: HCC-2998; assay: NCI 60 five-dose screening, HCC-2998
Description: as §1, §2, §3, §4, §5

[9] = system: IGROV1; assay: NCI 60 five-dose screening, IGROV1
Description: as §1, §2, §3, §4, §5

[10] = system: NCI/ADR-RES; assay: NCI 60 five-dose screening, NCI/ADR-RES; assay type: cell-based, human; conditions: NCI/ADR-RES (Ovarian Cancer), 48 h

Question: `COc1ccc(SC2c3cc(OC)c(OC)cc3Oc3nc(N)c(C#N)c(N)c32)cc1` (centres unmarked) [Compound 1, 2,4-diamino-7,8-dimethoxy-5-((4-methoxyphenyl)thio)-5H-chromeno[2,3-b]pyridine-3-carbonitrile] was tested. Which GI50 ([1]; Homo sapiens, SF-539, 48 h) did it give?
Answer: The GI50 was 1.38 µM.

Question: And the CC50 ([1]; Homo sapiens, SF-539, 48 h, read-out: LC50)?
Answer: Its CC50 is 5.2 µM.

Question: And the TGI ([1]; SF-539 (CNS Cancer), five-dose, 48 h)?
Answer: Its TGI is 2.68 µM.

Question: What about the GI50 ([2]; Homo sapiens, SK-MEL-28, 48 h) of the same compound?
Answer: Its GI50 is 1.47 µM.

Question: And the CC50 ([2]; Homo sapiens, SK-MEL-28, 48 h, read-out: LC50)?
Answer: The CC50 was 5.78 µM.

Question: What about the TGI ([2]; SK-MEL-28 (Melanoma), five-dose, 48 h) of the same compound?
Answer: The TGI was 2.91 µM.

Question: What about the GI50 ([3]; Homo sapiens, TK-10, 48 h) of the same compound?
Answer: The GI50 was 1.63 µM.

Question: And the CC50 ([3]; Homo sapiens, TK-10, 48 h, read-out: LC50)?
Answer: Its CC50 is 5.55 µM.

Question: And the TGI ([3]; TK-10 (Renal Cancer), five-dose, 48 h)?
Answer: The TGI was 3.01 µM.

Question: What about the TGI ([4]; COLO 205 (Colon Cancer), five-dose, 48 h) of the same compound?
Answer: The TGI was 2.65 µM.

Question: And the GI50 ([4]; Homo sapiens, COLO 205, 48 h)?
Answer: Its GI50 is 1.29 µM.

Question: What about the CC50 ([4]; Homo sapiens, COLO 205, 48 h, read-out: LC50) of the same compound?
Answer: The CC50 was 5.43 µM.

Question: What about the TGI ([5]; DU-145 (Prostate Cancer), five-dose, 48 h) of the same compound?
Answer: The TGI was 3.11 µM.

Question: What about the GI50 ([5]; Homo sapiens, DU-145, 48 h) of the same compound?
Answer: The GI50 was 1.73 µM.

Question: What about the CC50 ([5]; Homo sapiens, DU-145, 48 h, read-out: LC50) of the same compound?
Answer: Its CC50 is 5.59 µM.

Question: What about the GI50 ([6]; Homo sapiens, NCI-H460, 48 h) of the same compound?
Answer: Its GI50 is 1.66 µM.

Question: And the CC50 ([6]; Homo sapiens, NCI-H460, 48 h, read-out: LC50)?
Answer: The CC50 was > 100 µM.

Question: What about the TGI ([6]; NCI-H460 (Non-small cell Lung), five-dose, 48 h) of the same compound?
Answer: The TGI was 4.38 µM.

Question: And the GI50 ([7]; Homo sapiens, UACC-257, 48 h)?
Answer: Its GI50 is 1.87 µM.

Question: And the CC50 ([7]; Homo sapiens, UACC-257, 48 h, read-out: LC50)?
Answer: The CC50 was 5.9 µM.

Question: And the TGI ([7]; UACC-257 (Melanoma), five-dose, 48 h)?
Answer: Its TGI is 3.32 µM.

Question: What about the TGI ([8]; HCC-2998 (Colon Cancer), five-dose, 48 h) of the same compound?
Answer: Its TGI is 3.12 µM.

Question: What about the GI50 ([8]; Homo sapiens, HCC 2998, 48 h) of the same compound?
Answer: Its GI50 is 1.72 µM.

Question: And the CC50 ([8]; Homo sapiens, HCC 2998, 48 h, read-out: LC50)?
Answer: Its CC50 is 5.67 µM.

Question: What about the GI50 ([9]; Homo sapiens, IGROV-1, 48 h) of the same compound?
Answer: Its GI50 is 0.76 µM.

Question: What about the CC50 ([9]; Homo sapiens, IGROV-1, 48 h, read-out: LC50) of the same compound?
Answer: Its CC50 is 6.42 µM.

Question: What about the TGI ([9]; IGROV1 (Ovarian Cancer), five-dose, 48 h) of the same compound?
Answer: The TGI was 2.37 µM.

Question: And the GI50 ([10]; Homo sapiens)?
Answer: The GI50 was 1.79 µM.

Question: And the TGI [10]?
Answer: The TGI was 3.69 µM.
